≈ marks a conversion by molar mass, not a printed value.
Tests used:
HepG2 [1] = experiment: Cytotoxicity against human HepG2 cells assessed as cell growth inhibition incubated for 72 hrs by resazurin dye based fluorescence assay; format: functional; conditions: HepG2, 72 h
Plasmodium falciparum [2] = experiment: Antimalarial activity against chloroquine sensitive Plasmodium falciparum 3D7 infected in human RBC assessed as parasite growth inhibition incubated for 72 hrs by SYBR Green dye based fluorescence assay; format: functional, organism-based; conditions: 3D7, Erythrocyte
HepG2 [3] = experiment: Cytotoxicity against human HepG2 cells assessed as cell growth inhibition at 10 uM incubated for 48 hrs by CellTiter-Glo assay; format: functional; set-up: scale not given: the % may be the effect or the level left
Plasmodium falciparum [4] = experiment: Antimalarial activity against Plasmodium falciparum 3D7 assessed as reduction in parasite growth incubated for 72 hrs; format: functional, organism-based; conditions: 3D7, 72 h
[5] = Metabolic stability in CD1 mouse liver microsome assessed as intrinsic clearance at 0.5 uM incubated upto 30 mins by UPLC-MS/MS analysis; format: ADME; conditions: microsomes, 0.5 h
[6] = target: T1, Aurora kinase A (Homo sapiens) (UniProt O14965); experiment: Inhibition of human AURA at 1 uM incubated for 30 mins in presence of [gamma-33P]ATP by kinase selectivity assay
T1 sequence (whole entry): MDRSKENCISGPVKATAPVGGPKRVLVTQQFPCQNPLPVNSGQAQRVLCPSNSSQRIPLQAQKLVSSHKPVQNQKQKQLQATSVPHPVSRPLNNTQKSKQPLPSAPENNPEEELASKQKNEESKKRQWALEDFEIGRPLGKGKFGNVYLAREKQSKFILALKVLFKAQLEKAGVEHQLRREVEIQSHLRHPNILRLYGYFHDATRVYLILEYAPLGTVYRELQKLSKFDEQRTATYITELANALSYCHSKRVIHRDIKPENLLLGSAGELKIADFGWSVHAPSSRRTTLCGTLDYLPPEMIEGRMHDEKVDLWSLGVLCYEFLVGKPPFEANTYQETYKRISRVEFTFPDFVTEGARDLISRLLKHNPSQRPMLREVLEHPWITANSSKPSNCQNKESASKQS

[7] = Partition coefficient, logD of compound in octanol and phosphate buffer at pH 7.4 incubated for 6 hrs under shaking condition by HPLC-UV analysis; format: physicochemical
[8] = target: T2, Mitogen-activated protein kinase kinase kinase 7 (Homo sapiens) (UniProt O43318); experiment: Inhibition of human TAK1 at 1 uM incubated for 30 mins in presence of [gamma-33P]ATP by kinase selectivity assay
T2 sequence (whole entry): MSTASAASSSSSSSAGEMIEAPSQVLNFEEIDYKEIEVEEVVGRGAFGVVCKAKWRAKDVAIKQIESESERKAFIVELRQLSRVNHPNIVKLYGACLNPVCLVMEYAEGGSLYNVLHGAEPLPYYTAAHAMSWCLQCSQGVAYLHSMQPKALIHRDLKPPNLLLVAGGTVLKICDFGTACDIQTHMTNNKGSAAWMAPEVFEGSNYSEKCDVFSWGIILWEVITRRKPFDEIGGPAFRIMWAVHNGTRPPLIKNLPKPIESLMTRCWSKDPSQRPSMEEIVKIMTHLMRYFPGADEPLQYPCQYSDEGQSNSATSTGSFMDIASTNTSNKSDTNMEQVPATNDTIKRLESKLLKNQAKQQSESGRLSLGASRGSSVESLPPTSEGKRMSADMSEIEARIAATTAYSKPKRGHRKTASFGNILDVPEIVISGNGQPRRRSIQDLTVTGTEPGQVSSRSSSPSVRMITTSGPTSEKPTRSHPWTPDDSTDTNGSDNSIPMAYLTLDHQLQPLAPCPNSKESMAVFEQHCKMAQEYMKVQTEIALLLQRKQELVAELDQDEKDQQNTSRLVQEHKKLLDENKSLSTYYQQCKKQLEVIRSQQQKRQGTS

[9] = target: Mitogen-activated protein kinase 3 (Homo sapiens) (UniProt P27361); experiment: Inhibition of human ERK1 at 1 uM incubated for 30 mins in presence of [gamma-33P]ATP by kinase selectivity assay
[10] = target: Serine/threonine-protein kinase pim-1 (Homo sapiens) (UniProt P11309); experiment: Inhibition of human PIM1 at 1 uM incubated for 30 mins in presence of [gamma-33P]ATP by kinase selectivity assay
[11] = target: Vascular endothelial growth factor receptor 1 (Homo sapiens) (UniProt P17948); experiment: Inhibition of human VEGFR1 at 1 uM incubated for 30 mins in presence of [gamma-33P]ATP by kinase selectivity assay
[12] = target: Mitogen-activated protein kinase 8 (Homo sapiens) (UniProt P45983); experiment: Inhibition of human JNK1 at 1 uM incubated for 30 mins in presence of [gamma-33P]ATP by kinase selectivity assay
[13] = target: Mitogen-activated protein kinase kinase kinase 1 (Homo sapiens) (UniProt Q13233); experiment: Inhibition of human MEKK1 at 1 uM incubated for 30 mins in presence of [gamma-33P]ATP by kinase selectivity assay
[14] = target: Receptor tyrosine-protein kinase erbB-4 (Homo sapiens) (UniProt Q15303); experiment: Inhibition of human HER4 at 1 uM incubated for 30 mins in presence of [gamma-33P]ATP by kinase selectivity assay
[15] = Metabolic stability in human liver microsome assessed as intrinsic clearance at 0.5 uM incubated upto 30 mins by UPLC-MS/MS analysis; format: ADME; conditions: microsomes, 0.5 h
[16] = target: Cyclin-dependent kinase 2 (Homo sapiens) (UniProt P24941); experiment: Inhibition of human CDK2 at 1 uM incubated for 30 mins in presence of [gamma-33P]ATP by kinase selectivity assay
[17] = target: T3, Tyrosine-protein kinase JAK3 (Homo sapiens) (UniProt P52333); experiment: Inhibition of human JAK3 at 1 uM incubated for 30 mins in presence of [gamma-33P]ATP by kinase selectivity assay
T3 sequence (whole entry): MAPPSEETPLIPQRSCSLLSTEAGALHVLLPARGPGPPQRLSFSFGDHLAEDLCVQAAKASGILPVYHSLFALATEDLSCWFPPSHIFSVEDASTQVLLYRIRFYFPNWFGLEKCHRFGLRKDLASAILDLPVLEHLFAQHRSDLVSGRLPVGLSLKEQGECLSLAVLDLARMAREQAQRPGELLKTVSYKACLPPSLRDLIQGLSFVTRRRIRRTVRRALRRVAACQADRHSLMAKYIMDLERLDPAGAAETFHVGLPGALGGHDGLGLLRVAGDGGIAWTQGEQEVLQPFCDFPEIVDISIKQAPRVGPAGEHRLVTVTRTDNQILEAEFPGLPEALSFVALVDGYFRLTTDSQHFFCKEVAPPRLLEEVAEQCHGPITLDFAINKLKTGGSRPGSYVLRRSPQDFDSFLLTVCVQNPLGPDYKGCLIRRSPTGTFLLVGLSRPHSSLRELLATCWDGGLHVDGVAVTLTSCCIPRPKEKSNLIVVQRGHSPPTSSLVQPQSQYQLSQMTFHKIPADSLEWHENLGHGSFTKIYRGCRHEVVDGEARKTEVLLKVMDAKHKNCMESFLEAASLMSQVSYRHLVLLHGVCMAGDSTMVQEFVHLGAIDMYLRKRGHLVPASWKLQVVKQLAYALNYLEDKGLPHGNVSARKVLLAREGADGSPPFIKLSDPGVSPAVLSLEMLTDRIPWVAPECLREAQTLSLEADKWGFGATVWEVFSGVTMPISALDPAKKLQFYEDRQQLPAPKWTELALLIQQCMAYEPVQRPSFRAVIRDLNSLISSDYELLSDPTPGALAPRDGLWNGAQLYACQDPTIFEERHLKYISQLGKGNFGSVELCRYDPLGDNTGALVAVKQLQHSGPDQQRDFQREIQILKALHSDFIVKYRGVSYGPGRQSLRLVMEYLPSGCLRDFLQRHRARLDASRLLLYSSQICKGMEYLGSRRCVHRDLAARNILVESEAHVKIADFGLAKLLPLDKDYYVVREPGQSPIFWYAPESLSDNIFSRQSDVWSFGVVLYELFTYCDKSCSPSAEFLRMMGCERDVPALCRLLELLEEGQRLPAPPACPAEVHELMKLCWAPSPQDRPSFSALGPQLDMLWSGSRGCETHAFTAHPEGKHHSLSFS

[18] = Aqueous solubility of compound in PBS buffer at pH 7.4 by HPLC-UV analysis; format: physicochemical
[19] = Effective permeability in PBS at pH 7.4 incubated for 5 hrs by PAMPA based UPLC-MS/MS analysis; format: ADME

Sequence of Mitogen-activated protein kinase 8 (Homo sapiens) (P45983 whole entry): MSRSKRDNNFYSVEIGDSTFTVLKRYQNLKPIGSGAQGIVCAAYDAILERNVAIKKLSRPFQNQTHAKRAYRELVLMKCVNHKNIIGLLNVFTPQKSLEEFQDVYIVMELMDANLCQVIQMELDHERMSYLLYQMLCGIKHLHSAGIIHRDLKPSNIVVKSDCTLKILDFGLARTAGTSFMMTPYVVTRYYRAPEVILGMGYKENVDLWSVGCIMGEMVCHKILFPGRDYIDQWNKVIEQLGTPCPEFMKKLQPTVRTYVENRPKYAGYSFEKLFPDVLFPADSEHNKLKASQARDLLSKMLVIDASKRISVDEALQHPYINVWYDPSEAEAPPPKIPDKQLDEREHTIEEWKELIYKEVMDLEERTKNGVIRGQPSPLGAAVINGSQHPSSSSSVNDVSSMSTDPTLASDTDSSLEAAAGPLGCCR
Sequence of Mitogen-activated protein kinase 3 (Homo sapiens) (P27361 whole entry): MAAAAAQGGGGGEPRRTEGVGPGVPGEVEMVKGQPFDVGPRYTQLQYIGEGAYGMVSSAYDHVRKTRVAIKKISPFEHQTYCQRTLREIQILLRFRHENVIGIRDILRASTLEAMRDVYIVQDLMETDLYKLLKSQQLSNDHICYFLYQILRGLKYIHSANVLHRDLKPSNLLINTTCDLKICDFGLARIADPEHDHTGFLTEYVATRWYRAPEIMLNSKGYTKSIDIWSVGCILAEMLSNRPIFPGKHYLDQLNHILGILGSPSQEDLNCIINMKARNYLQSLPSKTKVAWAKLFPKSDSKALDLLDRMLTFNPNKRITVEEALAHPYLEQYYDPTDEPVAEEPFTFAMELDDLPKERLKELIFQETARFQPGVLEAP
Sequence of Mitogen-activated protein kinase kinase kinase 1 (Homo sapiens) (Q13233 whole entry): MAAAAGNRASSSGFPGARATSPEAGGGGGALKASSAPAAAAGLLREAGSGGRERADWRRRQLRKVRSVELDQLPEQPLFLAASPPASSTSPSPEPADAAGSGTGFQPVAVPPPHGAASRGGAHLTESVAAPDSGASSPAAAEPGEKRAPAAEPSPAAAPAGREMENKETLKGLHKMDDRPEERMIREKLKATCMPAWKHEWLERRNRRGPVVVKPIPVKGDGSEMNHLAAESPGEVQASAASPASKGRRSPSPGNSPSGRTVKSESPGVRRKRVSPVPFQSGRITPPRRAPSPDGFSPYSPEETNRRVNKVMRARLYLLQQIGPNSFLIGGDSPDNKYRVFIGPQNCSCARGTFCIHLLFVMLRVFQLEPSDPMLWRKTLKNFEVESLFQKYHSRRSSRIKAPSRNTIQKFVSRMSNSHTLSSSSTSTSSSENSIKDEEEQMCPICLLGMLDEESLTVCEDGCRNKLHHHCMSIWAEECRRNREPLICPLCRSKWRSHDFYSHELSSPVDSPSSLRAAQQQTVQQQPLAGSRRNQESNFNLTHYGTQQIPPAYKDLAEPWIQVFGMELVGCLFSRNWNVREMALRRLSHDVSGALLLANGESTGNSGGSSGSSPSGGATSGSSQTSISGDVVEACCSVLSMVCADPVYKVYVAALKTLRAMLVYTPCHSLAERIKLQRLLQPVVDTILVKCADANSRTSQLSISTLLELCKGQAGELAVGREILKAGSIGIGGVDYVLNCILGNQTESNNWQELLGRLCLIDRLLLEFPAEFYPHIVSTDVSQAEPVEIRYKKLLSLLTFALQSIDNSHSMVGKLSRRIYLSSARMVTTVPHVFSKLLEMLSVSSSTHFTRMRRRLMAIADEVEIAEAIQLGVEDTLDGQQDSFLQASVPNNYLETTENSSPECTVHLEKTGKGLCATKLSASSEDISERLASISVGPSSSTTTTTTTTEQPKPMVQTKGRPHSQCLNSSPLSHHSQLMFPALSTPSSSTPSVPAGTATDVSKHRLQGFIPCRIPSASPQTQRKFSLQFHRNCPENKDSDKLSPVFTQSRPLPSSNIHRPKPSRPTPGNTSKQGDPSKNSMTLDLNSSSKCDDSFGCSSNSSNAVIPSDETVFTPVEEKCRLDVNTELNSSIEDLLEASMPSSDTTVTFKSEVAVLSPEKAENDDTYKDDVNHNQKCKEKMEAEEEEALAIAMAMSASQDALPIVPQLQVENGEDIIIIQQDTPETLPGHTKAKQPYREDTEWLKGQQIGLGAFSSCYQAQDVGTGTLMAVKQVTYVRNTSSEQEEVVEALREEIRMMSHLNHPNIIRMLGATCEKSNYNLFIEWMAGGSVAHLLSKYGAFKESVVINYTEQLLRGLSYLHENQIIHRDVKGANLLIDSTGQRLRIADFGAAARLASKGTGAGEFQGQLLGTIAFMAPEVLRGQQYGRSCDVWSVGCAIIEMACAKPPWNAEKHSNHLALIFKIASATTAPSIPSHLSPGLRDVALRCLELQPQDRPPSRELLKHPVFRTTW
Sequence of Serine/threonine-protein kinase pim-1 (Homo sapiens) (P11309 whole entry, looked up): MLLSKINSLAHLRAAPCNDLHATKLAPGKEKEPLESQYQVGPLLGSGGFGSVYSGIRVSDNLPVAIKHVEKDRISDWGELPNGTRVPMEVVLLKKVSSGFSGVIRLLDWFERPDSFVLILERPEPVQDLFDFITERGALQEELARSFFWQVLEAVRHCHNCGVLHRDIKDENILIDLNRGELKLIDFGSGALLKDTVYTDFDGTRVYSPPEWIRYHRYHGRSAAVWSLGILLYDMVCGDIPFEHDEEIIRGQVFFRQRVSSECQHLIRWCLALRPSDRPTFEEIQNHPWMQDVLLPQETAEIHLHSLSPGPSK
Sequence of Receptor tyrosine-protein kinase erbB-4 (Homo sapiens) (Q15303 whole entry): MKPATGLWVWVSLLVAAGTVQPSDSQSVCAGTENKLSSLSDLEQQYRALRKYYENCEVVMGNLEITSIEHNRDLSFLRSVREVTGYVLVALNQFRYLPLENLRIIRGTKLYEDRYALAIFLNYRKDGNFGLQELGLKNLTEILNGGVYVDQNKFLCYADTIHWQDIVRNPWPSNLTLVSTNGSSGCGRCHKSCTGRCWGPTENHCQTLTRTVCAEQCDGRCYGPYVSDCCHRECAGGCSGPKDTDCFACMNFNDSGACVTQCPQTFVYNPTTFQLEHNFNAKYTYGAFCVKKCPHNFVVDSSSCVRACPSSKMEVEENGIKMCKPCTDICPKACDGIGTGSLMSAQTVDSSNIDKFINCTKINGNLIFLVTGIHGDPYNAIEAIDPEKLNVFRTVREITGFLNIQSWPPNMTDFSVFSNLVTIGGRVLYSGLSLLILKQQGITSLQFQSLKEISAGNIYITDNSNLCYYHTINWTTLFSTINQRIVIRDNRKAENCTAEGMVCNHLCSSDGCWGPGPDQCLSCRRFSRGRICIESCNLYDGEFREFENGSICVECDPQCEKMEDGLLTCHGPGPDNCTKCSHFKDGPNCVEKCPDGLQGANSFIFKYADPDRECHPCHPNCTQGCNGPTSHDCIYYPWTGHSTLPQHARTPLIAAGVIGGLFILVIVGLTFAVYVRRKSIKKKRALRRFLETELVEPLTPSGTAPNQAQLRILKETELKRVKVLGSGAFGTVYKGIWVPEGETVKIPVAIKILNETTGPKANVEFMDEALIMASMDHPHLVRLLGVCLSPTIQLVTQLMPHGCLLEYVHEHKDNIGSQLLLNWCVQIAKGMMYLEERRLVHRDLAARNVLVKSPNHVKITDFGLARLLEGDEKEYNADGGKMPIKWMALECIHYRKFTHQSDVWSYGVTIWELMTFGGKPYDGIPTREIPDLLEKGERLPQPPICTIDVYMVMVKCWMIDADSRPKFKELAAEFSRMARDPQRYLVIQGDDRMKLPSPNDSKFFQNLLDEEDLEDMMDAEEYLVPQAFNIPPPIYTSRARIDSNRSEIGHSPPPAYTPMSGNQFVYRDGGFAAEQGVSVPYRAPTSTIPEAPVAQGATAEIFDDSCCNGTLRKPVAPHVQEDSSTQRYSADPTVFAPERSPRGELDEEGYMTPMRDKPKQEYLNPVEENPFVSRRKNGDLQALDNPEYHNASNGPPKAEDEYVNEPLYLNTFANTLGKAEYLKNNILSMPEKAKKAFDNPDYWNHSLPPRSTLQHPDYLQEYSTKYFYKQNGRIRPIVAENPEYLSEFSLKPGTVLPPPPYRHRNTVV

SMILES | IC50 (HepG2 [1]) [µM] | IC50 (Plasmodium falciparum [2]) [µM] | other results
O[C@@H](c1cc(C(F)(F)F)nc2c(C(F)(F)F)cccc12)[C@H]1CCCCN1 [(S,R)-MEFLOQUINE] | 11.5 |  | 
Nc1cnc(Nc2cccc(NC(=O)Nc3ccccc3)c2)nc1Nc1ccc2cn[nH]c2c1 | > 25 | 2.9 | 
CC(=O)c1ccc(NC(=O)Nc2ccc(N(C)c3ccnc(Nc4cccc(CS(C)(=O)=O)c4)n3)cc2)cc1 |  |  | Activity (HepG2 [3]): 86%; EC50 (Plasmodium falciparum [4]): 0.12 µM
Cc1c2ccc(Nc3ccnc(Nc4cccc(NC(=O)Nc5ccccc5)c4)n3)cc2nn1C | 2.4 | 0.17 | 
O=C(Nc1ccccc1)Nc1cccc(Nc2nccc(Nc3ccc4nc[nH]c4c3)n2)c1 | 11 | 0.54 | 
O=C(Nc1ccc(Nc2nccc(Nc3ccc4cn[nH]c4c3)n2)cc1)Nc1cccc(F)c1 | 6.6 | 1 | 
c1cc(Nc2ccc3cn[nH]c3c2)nc(Nc2ccc(OCCN3CCOCC3)cc2)n1 | 15 | 2.1 | 
O=C(Nc1ccccc1)Nc1cccc(Nc2nccc(Nc3ccc4[nH]ccc4c3)n2)c1 | 5 | 0.093 | CLH [5]: 8.8 mL/min/g; inhibition [6]: 21.7%; logD at 6 h [7]: ≥ 4; inhibition [8]: 26.6%; inhibition [9]: 84%; inhibition [10]: 99.6%; inhibition [11]: 1.8%; inhibition [12]: 68%; inhibition [13]: 45.9%; inhibition [14]: 32.2%; CLH [15]: 5 mL/min/g; inhibition [16]: 71.4%; inhibition [17]: 56.7%; solubility [18]: 0.33 µg/mL (≈ 0.758 µM)
c1cc(Nc2ccc3cn[nH]c3c2)nc(Nc2ccc(Cn3cncn3)cc2)n1 | 18 | 7.2 | 
Cn1cc2ccc(Nc3ccnc(Nc4cccc(NC(=O)Nc5ccccc5)c4)n3)cc2n1 | 12 | 0.22 | CLH [5]: > 50 mL/min/g; inhibition [6]: 22%; logD at 6 h [7]: ≥ 4; inhibition [8]: 35.8%; inhibition [9]: 65.6%; inhibition [10]: 102%; inhibition [11]: 4.1%; inhibition [12]: 68.8%; inhibition [13]: 52.4%; inhibition [14]: 67.7%; CLH [15]: 9.1 mL/min/g; inhibition [16]: 78.7%; inhibition [17]: 51.4%; solubility [18]: 0.11 µg/mL (≈ 0.244 µM)
Cc1cccc(NC(=O)Nc2cccc(Nc3nccc(Nc4ccc5cn[nH]c5c4)n3)c2)c1 | 2.8 | 0.32 | 
COc1ccc(NC(=O)Nc2ccccc2)cc1Nc1nccc(Nc2ccc3cn[nH]c3c2)n1 | 6.5 | 1.5 | 
O=C(Nc1ccccc1)Nc1cccc(Nc2ncc(Cl)c(Nc3ccc4cn[nH]c4c3)n2)c1 | 3.5 | 2.5 | 
Cc1cnc(Nc2cccc(NC(=O)Nc3ccccc3)c2)nc1Nc1ccc2cn[nH]c2c1 | 3.6 | 0.15 | 
CN1CCN(c2ccc(Nc3ncc(C#N)c(Nc4ccccc4C(N)=O)n3)cc2)CC1 |  |  | Activity (HepG2 [3]): 43%; EC50 (Plasmodium falciparum [4]): 0.04 µM
CN1CCN(S(=O)(=O)c2ccc(Nc3nccc(Nc4ccc5nc[nH]c5c4)n3)cc2)CC1 | > 25 | 1.2 | 
O=C(Nc1ccc(F)cc1)Nc1ccc(Nc2nccc(Nc3ccc4cn[nH]c4c3)n2)cc1 | 3.5 | 0.79 | 
O=C(Nc1ccccc1)Nc1cc(Nc2nccc(Nc3ccc4cn[nH]c4c3)n2)ccc1O | 25 | 1.4 | 
O=C(Nc1ccc(F)cc1)Nc1cccc(Nc2nccc(Nc3ccc4cn[nH]c4c3)n2)c1 | 12 | 0.4 | 
O=C(Nc1ccccc1)Nc1cccc(Nc2ncc([N+](=O)[O-])c(Nc3ccc4cn[nH]c4c3)n2)c1 | > 25 | 6.4 | 
Cc1ccc(Nc2nccc(Nc3ccc4cn[nH]c4c3)n2)cc1NC(=O)Nc1ccccc1 | 8.9 | 1 | 
O=S(=O)(c1ccc(Nc2nccc(Nc3ccc4nc[nH]c4c3)n2)cc1)N1CCOCC1 | > 25 | 7.1 | 
O=C(Nc1ccccc1)Nc1ccc(Nc2nccc(Nc3ccc4cn[nH]c4c3)n2)cc1 | 11 | 0.92 | 
O=C(Nc1ccccc1)Nc1cccc(Nc2nccc(Nc3ccc4[nH]ncc4c3)n2)c1 | 8.1 | 0.33 | 
c1cc(Nc2ccc3nc[nH]c3c2)nc(Nc2ccc(OCCN3CCOCC3)cc2)n1 | > 25 | 1.2 | 
O=C(Nc1ccccc1)Nc1cccc(Nc2nccc(Nc3ccc4cc[nH]c4c3)n2)c1 | 3.2 | 0.09 | CLH [5]: 3.8 mL/min/g; inhibition [6]: 16.5%; logD at 6 h [7]: ≥ 4; inhibition [8]: 17.1%; inhibition [9]: 75.6%; inhibition [10]: 80.2%; inhibition [11]: 2.4%; inhibition [12]: 59.6%; inhibition [13]: 40.7%; inhibition [14]: 42.3%; CLH [15]: 2.6 mL/min/g; inhibition [16]: 78.8%; inhibition [17]: 57.7%; Papp at 5 h [19]: 10 ×10⁻⁶ cm/s; solubility [18]: 0.44 µg/mL (≈ 1.01 µM)
Cc1ccc(NC(=O)Nc2cccc(Nc3nccc(Nc4ccc5cn[nH]c5c4)n3)c2)cc1 | 11 | 0.72 | 
O=C1NC(Cc2ccc(Nc3nccc(Nc4ccc5cn[nH]c5c4)n3)cc2)CO1 (stereo not given) | 20 | 7.1 | 
O=C(Nc1ccccc1)Nc1cccc(Nc2nccc(Nc3ccc4cn[nH]c4c3)n2)c1 | 8.2 | 0.47 | 

— ChEMBL document CHEMBL5104230, “Preparation, biological evaluation and QSAR analysis of urea substituted 2,4-diamino-pyrimidine anti-malarials” (RSC Med Chem, 2022)
